Structures are written as SMILES.

Series [1] is described as follows: Liver microsomes study, Phase I stability (HLM). Particulars: pH 7.4; human liver microsomes 0.5 mg/mL, 1 μM test article; read-out: HLM Clint. The class given is in vitro ADME, human. How it is done:
(§1) Commercially available liver microsomes (MsLM vendor: XENOTECH; RLM, DLM, MkL, HLM vendor: Corning) were used for study the Phase I stability of test articles. […] The reaction was initiated by addition of 80 μL of the NADPH regenerating system to 320 µL of each incubation mixture per time point. […] The 0-minute samples were prepared by addition of an 80 μL aliquot of each incubation mixture to 400 μL quench reagent to precipitate proteins. And then a 20 μL aliquot of the NADPH regenerating system was added. At 10, 30, and 90 minutes, the reaction will be stopped by the addition of cold acetonitrile solution containing tolbutamide and propanolol served as internal standard. The samples taken at all time points were centrifuged at 4000×g for 15 minutes. 80 μL of supernatant are taken into 96-well assay plates pre-added with 160 μL ultrapure water, and then analyzed by LC/MS/MS(Shimadzu LC30AD & API4000/API5000)). Concentrations of test articles, control compounds in the samples were determined by using LC/MS/MS) method. Plotting of the chromatograms and peak area integrations are carried out by Analyst (AB Sciex).
(§2) In the determination of the in vitro elimination constant, ke, of the control compounds, the analyte/internal standard peak area ratios will be converted to percentage remaining (% Remaining) with the following equation: […]
(§3) The slope was measured by the natural logarithm of the percentage of the residual compound and time, T½ and CLint were calculated according to the following formulas, V/M was equal to the 1/concentration of protein.
On the technique in general: Microsomes from liver hold many membrane-bound enzymes, among them those of drug oxidation.

The target in another series is T1, JAK1 (Homo sapiens, UniProt P23458).
T1 construct: purchased Carna Biosciences
Nature of the series: JAK1 microfluidic kinase assay (Caliper EZ Reader II, FAM labeled peptide substrate). Type of series: biochemical. Particulars: IC50 JAK1 (5 nM) (1 m MATP), JAK1 5 nM, 1 mM ATP. A digest of the protocol: (§4)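 Microfluidic mobility-shift kinase assay in 50 mM HEPES, 0.01% Brij35, 10 mM MgCl2, 2 mM DTT. IC50 values come from percent-inhibition curves normalised to uninhibited and enzyme-free controls.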

A further series deals with T2, JAK2V617F (Homo sapiens, UniProt O60674, V617F).
T2 construct: purchased Carna Biosciences
Briefly: JAK2V617F microfluidic kinase assay (Caliper EZ Reader II, FAM labeled peptide substrate). The class given is biochemical. Particulars: JAK2V617F 2.5 nM, 1 mM ATP. A digest of the protocol: as §4

A short description of series [2]: Liver microsomes study, Phase I stability (RLM). Particulars: pH 7.4; rat liver microsomes 0.5 mg/mL, 1 μM test article; read-out: RLM Clint. The class given is in vitro ADME, rat. As for the experimental part: as §1, §2, §3
The target in another series is T3, JAK2 (Homo sapiens, UniProt O60674).
T3 construct: purchased Carna Biosciences
Nature of the series: JAK2 microfluidic kinase assay (Caliper EZ Reader II, FAM labeled peptide substrate). Type of series: biochemical. A digest of the protocol: as §4

[3] abbreviates: IC50 JAK2 ([…]) (1 mM ATP), 1 mM ATP.
Setting [4] is: IC50 JAK2 ([…]) (Km ATP), Km ATP.

T3 sequence (O60674 whole entry): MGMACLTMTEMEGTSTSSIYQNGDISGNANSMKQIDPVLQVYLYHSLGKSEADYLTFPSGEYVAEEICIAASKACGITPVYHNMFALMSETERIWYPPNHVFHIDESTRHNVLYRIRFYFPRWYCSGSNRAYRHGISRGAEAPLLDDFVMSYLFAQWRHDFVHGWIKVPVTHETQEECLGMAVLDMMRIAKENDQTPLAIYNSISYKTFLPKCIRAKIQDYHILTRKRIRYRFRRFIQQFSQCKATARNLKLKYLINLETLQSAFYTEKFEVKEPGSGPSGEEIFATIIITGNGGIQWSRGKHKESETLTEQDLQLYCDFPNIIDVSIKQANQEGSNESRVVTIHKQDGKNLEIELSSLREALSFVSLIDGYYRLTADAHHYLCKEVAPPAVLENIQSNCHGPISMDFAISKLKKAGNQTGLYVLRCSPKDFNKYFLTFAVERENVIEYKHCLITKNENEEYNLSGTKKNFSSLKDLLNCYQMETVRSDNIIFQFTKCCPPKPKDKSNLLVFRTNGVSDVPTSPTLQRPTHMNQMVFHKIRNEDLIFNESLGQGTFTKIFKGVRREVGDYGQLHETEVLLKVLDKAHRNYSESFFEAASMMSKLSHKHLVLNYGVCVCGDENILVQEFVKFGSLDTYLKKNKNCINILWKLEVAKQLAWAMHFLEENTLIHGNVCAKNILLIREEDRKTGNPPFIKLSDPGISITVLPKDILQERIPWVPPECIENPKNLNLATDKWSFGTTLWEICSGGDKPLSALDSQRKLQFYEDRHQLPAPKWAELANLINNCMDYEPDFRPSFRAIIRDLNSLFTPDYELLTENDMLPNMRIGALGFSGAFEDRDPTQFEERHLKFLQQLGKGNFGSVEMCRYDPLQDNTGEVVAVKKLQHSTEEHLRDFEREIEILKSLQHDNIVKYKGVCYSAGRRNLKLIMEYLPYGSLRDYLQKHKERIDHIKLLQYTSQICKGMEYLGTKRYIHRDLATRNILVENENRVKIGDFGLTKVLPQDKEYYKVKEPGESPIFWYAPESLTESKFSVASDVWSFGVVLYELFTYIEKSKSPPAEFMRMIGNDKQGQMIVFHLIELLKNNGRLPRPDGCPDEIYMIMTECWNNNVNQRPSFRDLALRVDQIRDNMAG
T1 sequence (P23458 whole entry): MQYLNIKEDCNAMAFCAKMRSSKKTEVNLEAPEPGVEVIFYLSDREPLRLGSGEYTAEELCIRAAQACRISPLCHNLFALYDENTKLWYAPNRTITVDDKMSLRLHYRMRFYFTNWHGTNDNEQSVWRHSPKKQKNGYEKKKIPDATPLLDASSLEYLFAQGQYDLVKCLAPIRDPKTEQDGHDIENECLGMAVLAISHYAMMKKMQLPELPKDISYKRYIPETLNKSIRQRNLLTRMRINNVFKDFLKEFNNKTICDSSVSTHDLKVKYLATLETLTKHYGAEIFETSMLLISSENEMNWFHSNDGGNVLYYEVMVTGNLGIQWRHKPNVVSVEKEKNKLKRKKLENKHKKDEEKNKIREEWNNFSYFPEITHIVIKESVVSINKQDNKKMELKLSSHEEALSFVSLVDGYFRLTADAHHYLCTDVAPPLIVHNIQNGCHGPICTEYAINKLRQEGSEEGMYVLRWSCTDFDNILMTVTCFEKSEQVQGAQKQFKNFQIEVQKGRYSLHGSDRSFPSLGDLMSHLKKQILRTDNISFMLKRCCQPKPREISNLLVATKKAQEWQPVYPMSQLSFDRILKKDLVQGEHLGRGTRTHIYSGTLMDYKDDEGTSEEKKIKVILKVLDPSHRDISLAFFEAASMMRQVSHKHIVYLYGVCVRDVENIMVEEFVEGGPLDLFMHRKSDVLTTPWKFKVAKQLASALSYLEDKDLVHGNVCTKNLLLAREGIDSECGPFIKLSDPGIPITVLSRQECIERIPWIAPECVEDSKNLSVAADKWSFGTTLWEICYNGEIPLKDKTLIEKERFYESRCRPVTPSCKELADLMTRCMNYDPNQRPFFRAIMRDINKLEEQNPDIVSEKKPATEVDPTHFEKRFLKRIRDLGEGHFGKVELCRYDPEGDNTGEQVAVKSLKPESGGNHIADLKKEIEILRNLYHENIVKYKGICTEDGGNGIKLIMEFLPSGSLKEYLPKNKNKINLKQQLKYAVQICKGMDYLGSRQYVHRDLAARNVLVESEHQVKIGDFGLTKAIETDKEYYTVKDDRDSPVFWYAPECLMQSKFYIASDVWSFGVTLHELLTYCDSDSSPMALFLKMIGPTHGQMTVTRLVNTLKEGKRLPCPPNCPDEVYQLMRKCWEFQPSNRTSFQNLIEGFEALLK
T2 sequence (O60674 whole entry V617F): as the sequence (O60674 whole entry) above, with V617F counted along it

As a reminder, the IC50 is the concentration that inhibits the measured activity by half. On to `N#CC1(CNC(=O)c2ccc(-c3nc(Nc4cnn(C5CCOCC5)c4)ncc3Cl)cc2)CC1` [Example 78, 4-(5-Chloro-2-((1-(tetrahydro-2H-pyran-4-yl)-1H-pyrazol-4-yl)amino)pyrimidin-4-yl)-N-((1-cyanocyclopropyl)methyl)benzamide], for which the microsomal CLint at 1 μM is 30 µL/min/mg in series [1] and 47.2 µL/min/mg in series [2]. In addition, the IC50 against JAK1 stood at 37.8 nM; against JAK2V617F, 45.3 nM.

Turning to `Cc1cnc(Nc2cnn(C3CC3)c2)nc1-c1ccc(C(=O)N2CC(C#N)C2)c(F)c1` [Example 140, 1-(4-(2-((1-Cyclopropyl-1H-pyrazol-4-yl)amino)-5-methylpyrimidin-4-yl)-2-fluorobenzoyl)azetidine-3-carbonitrile], the microsomal CLint at 1 μM in series [1] amounted to 9.1 µL/min/mg; in series [2], 628 µL/min/mg. The IC50 against JAK1 worked out at 257 nM; on JAK2V617F it was 341 nM; at JAK2 (setting [3]) it was 155 nM; at JAK2 (setting [4]), 6.4 nM.

On to `CC(C)(C#N)CNC(=O)c1ccc(-c2nc(Nc3cnn(C4CC4)c3)ncc2Cl)cc1` [Example 123, 4-(5-Chloro-2-((1-cyclopropyl-1H-pyrazol-4-yl)amino)pyrimidin-4-yl)-N-(2-cyano-2-methylpropyl)benzamide], for which the microsomal CLint at 1 μM in series [1] stood at 35.2 µL/min/mg; in series [2], 77.3 µL/min/mg. In addition, the IC50 amounted to 19 nM against JAK1, 56 nM against JAK2V617F and 13 nM against JAK2 (setting [3]).

As to `Cc1cnc(Nc2cnn(C)c2)nc1-c1ccc(C(=O)N[C@H](C)C#N)cc1` [Example 101, (R)—N-(1-cyanoethyl)-4-(5-methyl-2-((1-methyl-1H-pyrazol-4-yl)amino)pyrimidin-4-yl)benzamide], the microsomal CLint at 1 μM turned out to be 2 µL/min/mg in series [1] and 19.2 µL/min/mg in series [2]. For the same compound, the IC50 at JAK1 was determined as 75.1 nM; against JAK2V617F it was 362 nM; on JAK2 (setting [4]) it was 4.5 nM.

With `Cc1cnc(Nc2cnn(C3CCN(C(=O)C4CC4)CC3)c2)nc1-c1ccc(C(=O)NCC#N)nc1` [Example 150, N-(cyanomethyl)-5-(2-((1-(1-(cyclopropanecarbonyl)piperidin-4-yl)-1H-pyrazol-4-yl)amino)-5-methylpyrimidin-4-yl)picolinamide], the microsomal CLint at 1 μM in series [1] worked out at 56.4 µL/min/mg; in series [2], 80.8 µL/min/mg. In addition, the IC50 against JAK1 came to 23.5 nM; on JAK2V617F, 4.19 nM.

Consider `N#CCNC(=O)c1ccc(-c2nc(Nc3cnn(C4CC4)c3)ncc2Cl)cn1` [Example 120, 5-(5-Chloro-2-((1-cyclopropyl-1H-pyrazol-4-yl)amino)pyrimidin-4-yl)-N-(cyanomethyl)picolinamide], for which the microsomal CLint at 1 μM worked out at 16.2 µL/min/mg in series [1] and 47.5 µL/min/mg in series [2]. In addition, the values for the IC50 on JAK1 and at JAK2V617F were 39.8 nM and 131 nM, respectively.

Take `Cc1cnc(Nc2cnn(C3CCOCC3)c2)nc1-c1ccc(C(=O)N[C@@H](C)C#N)cc1` [Example 144, (S)—N-(1-cyanoethyl)-4-(5-methyl-2-((1-(tetrahydro-2H-pyran-4-yl)-1H-pyrazol-4-yl)amino)pyrimidin-4-yl)benzamide]: the microsomal CLint at 1 μM in series [1] came out at 19.4 µL/min/mg; in series [2], 38.6 µL/min/mg. Moreover, the results for the IC50 against JAK1 and against JAK2V617F were 13.9 nM and 30.1 nM, respectively.

For the compound `Cc1cnc(Nc2cnn(C3CC(C#N)C3)c2)nc1-c1ccc(C(=O)NCC#N)cc1` (centres unmarked) [Example 106, 4-(2-((1-(3-Cyanocyclobutyl)-1H-pyrazol-4-yl)amino)-5-methylpyrimidin-4-yl)-N-(cyanomethyl)benzamide], the microsomal CLint at 1 μM was 11.1 µL/min/mg in series [1] and 38.4 µL/min/mg in series [2]. The concentration for half-maximal inhibition (IC50) was found to be 14.9 nM against JAK1, 23.7 nM on JAK2V617F, 2.17 nM at JAK2 (setting [3]) and 0.25 nM against JAK2 (setting [4]).

For `Cc1cnc(Nc2cnn(C(C)C(F)(F)F)c2)nc1-c1ccc(C(=O)NCC#N)cc1` (centres unmarked) [Example 112, N-(cyanomethyl)-4-(5-methyl-2-((1-(1,1,1-trifluoropropan-2-yl)-1H-pyrazol-4-yl)amino)pyrimidin-4-yl)benzamide], the microsomal CLint at 1 μM in series [1] was 49.1 µL/min/mg; in series [2], 76.4 µL/min/mg. Further, the IC50 worked out at 6.43 nM against JAK1, 119 nM against JAK2V617F and 79 nM against JAK2 (setting [3]).

Take `Cc1cnc(Nc2cnn(C3CCN(C(=O)C4(F)CC4)CC3)c2)nc1-c1ccc(C(=O)NCC#N)cc1` [Example 152, N-(cyanomethyl)-4-(2-((1-(1-(1-fluorocyclopropanecarbonyl)piperidin-4-yl)-1H-pyrazol-4-yl)amino)-5-methylpyrimidin-4-yl)benzamide]: the microsomal CLint at 1 μM worked out at 96 µL/min/mg in series [1] and 85.9 µL/min/mg in series [2]. The IC50 against JAK1 is 14.9 nM; against JAK2V617F, 0.67 nM; on JAK2 (setting [3]), under 0.25 nM.

With `COCCNC(=O)c1ccc(-c2nc(Nc3cnn(C)c3)ncc2C)cc1` [Example 6, N-(2-Methoxyethyl)-4-(5-methyl-2-((1-methyl-1H-pyrazol-4-yl)amino)pyrimidin-4-yl)benzamide], the microsomal CLint at 1 μM in series [1] is 6.6 µL/min/mg; in series [2], 2.58 µL/min/mg. The results for the IC50 against JAK1, against JAK2V617F and against JAK2 (setting [4]) were 75.4 nM, 669 nM and 8.4 nM, respectively.

On to `Cc1cnc(Nc2cnn(C3C[C@@H](C)O[C@@H](C)C3)c2)nc1-c1ccc(C(=O)NCC#N)cc1` (some centres unmarked) [Example 68], for which the values for the microsomal CLint at 1 μM in series [1] and in series [2] were 141 µL/min/mg and 228 µL/min/mg, respectively. Moreover, the IC50 on JAK1 is 30.4 nM; against JAK2V617F it was 9.07 nM.

Turning to `CO[C@H]1CC[C@H](n2cc(Nc3ncc(C)c(-c4ccc(C(=O)N[C@@H](C)C#N)cc4)n3)cn2)CC1` [Example 91, N—((S)-1-cyanoethyl)-4-(2-((1-(trans-4-methoxycyclohexyl)-1H-pyrazol-4-yl)amino)-5-methylpyrimidin-4-yl)benzamide], the microsomal CLint at 1 μM in series [1] amounted to 6.7 µL/min/mg; in series [2] it was 80.1 µL/min/mg. Further, the IC50 was found to be 12 nM against JAK1, 15.8 nM at JAK2V617F and 0.35 nM at JAK2 (setting [3]).

Take `Cc1cnc(Nc2cnn(C3C[C@H]4CC[C@@H](C3)O4)c2)nc1-c1ccc(C(=O)N[C@@H](C)C#N)cc1` (stereo partly drawn) [Example 70, 4-(2-((1-((1R,5S)-8-oxabicyclo[3.2.1]octan-3-yl)-1H-pyrazol-4-yl)amino)-5-methylpyrimidin-4-yl)-N—((S)-1-cyanoethyl)benzamide]: the values for the microsomal CLint at 1 μM in series [1] and in series [2] were 42.9 µL/min/mg and 32.5 µL/min/mg, respectively. Moreover, the figures for the IC50 against JAK1 and against JAK2V617F were 12.4 nM and 7.22 nM, respectively.

With `Cc1cnc(Nc2cnn([C@H]3CC[C@H](C#N)CC3)c2)nc1-c1ccc(C(=O)N[C@@H](C)C#N)cc1` [Example 154, 4-(2-((1-(Trans-4-cyanocyclohexyl)-1H-pyrazol-4-yl)amino)-5-methylpyrimidin-4-yl)-N—((S)-1-cyanoethyl)benzamide], the microsomal CLint at 1 μM in series [1] was 14.7 µL/min/mg; in series [2] it was 69 µL/min/mg. The IC50 amounted to 12 nM at JAK1 and 4.5 nM against JAK2V617F.

Take `Cc1cnc(Nc2cnn(C3CCN(C(=O)C(C)(C)O)CC3)c2)nc1-c1ccc(C(=O)NCC#N)cc1` [Example 51, N-(cyanomethyl)-4-(2-((1-(1-(2-hydroxy-2-methylpropanoyl)piperidin-4-yl)-1H-pyrazol-4-yl)amino)-5-methylpyrimidin-4-yl)benzamide]: the microsomal CLint at 1 μM in series [1] stood at 33.9 µL/min/mg; in series [2] it was 17.1 µL/min/mg. The values for the IC50 at JAK1 and against JAK2V617F were 8.7 nM and 0.51 nM, respectively.

The record behind these values is patent US12595253B2, “Benzamides of pyrazolylamino-pyrimidinyl derivatives, and compositions and methods thereof” (LYNK PHARMACEUTICALS CO. LTD., priority 2019, dated 2026).
